Values after ≈ are worked out from the molar mass of the structure shown. Active and inactive are the calls of the source. The rule behind the calls is not given here.
Assays:
Staphylococcus aureus [1] = test: Minimum inhibitory concentration against Staphylococcus aureus;; type: functional
[2] = Half life at a pH of 9 and temperature 37 degree; type: ADME; details: pH 9
Pseudomonas aeruginosa = test: Minimum inhibitory concentration against Pseudomonas aeruginosa; 40-80 ug/mL; type: functional
Enterobacter cloacae = test: Minimum inhibitory concentration against Enterobacter cloacae; 40-80 ug/mL; type: functional
Serratia marcescens = test: Minimum inhibitory concentration against Serratia marcescens; 40-80 ug/mL; type: functional
[3] = Inhibition of hydrolysis of nitrocefin after 5 min pre-incubation with TEM-1 beta-lactamase (class 1)
Staphylococcus aureus [4] = test: Minimum inhibitory concentration against Staphylococcus aureus; No activity; type: functional, organism-based
[5] = Time dependent inhibition of hydrolysis of nitrocefin after 5 min pre-incubation with TEM-1 beta-lactamase (class 1)
[6] = Antibacterial activity expressed as binding to PBP 2 of Pseudomonas aeruginosa
[7] = Antibacterial activity expressed as binding to PBP 5 of Pseudomonas aeruginosa
[8] = Antibacterial activity expressed as binding to PBP 1b of Pseudomonas aeruginosa
[9] = Antibacterial activity expressed as binding to PBP 4 of Pseudomonas aeruginosa
[10] = Antibacterial activity expressed as binding to PBP 1a of Pseudomonas aeruginosa
[11] = Antibacterial activity expressed as binding to PBP 3 of Pseudomonas aeruginosa

Row | SMILES | half-life [2] [min] | IC50 [3] [µM] | MIC (Staphylococcus aureus [4]) | IC50 [5] [µM] | also measured
1 | COC1=C[C@@H]2CC(=O)N(C2)C1C(=O)O (stereo partly specified) | 14 | 280 | – | – | MIC (Staphylococcus aureus [1]): 80 µg/mL (≈ 406 µM); MIC (Pseudomonas aeruginosa): 80 µg/mL (≈ 406 µM); MIC (Enterobacter cloacae): 80 µg/mL (≈ 406 µM); MIC (Serratia marcescens): 80 µg/mL (≈ 406 µM)
2 | COC1=C(C(=O)OCc2ccc([N+](=O)[O-])cc2)N2C[C@@H](CC2=O)C1 | 6 | 54 | inactive | – | –
3 | CC[C@@H]1C(=O)N2C[C@@H]1CC(OC)=C2C(=O)OCc1ccc([N+](=O)[O-])cc1 | 42 | > 1000 | inactive | – | –
4 | CC[C@@H]1C(=O)N2C[C@@H]1C=C(OC)C2C(=O)OCc1ccc([N+](=O)[O-])cc1 (stereo partly specified) | 55 | – | inactive | 420 | –
5 | CC(O)[C@H]1C(=O)N2C(C(=O)O)=C(SCCNC=N)C[C@H]12 (single isomer, unassigned) [IMIPENEM ANHYDROUS] | – | – | – | – | IC50 [6]: < 0.6 µM; IC50 [7]: 2.3 µM; IC50 [8]: 0.6 µM; IC50 [9]: < 0.1 µM; IC50 [10]: 0.3 µM
6 | CC[C@@H]1C(=O)N2C[C@@H]1CC(OC)=C2C(=O)O | 25 | – | inactive | 700 | IC50 [6]: 50 µM; IC50 [7]: 50 µM; IC50 [8]: > 50 µM; MIC (Pseudomonas aeruginosa): 80 µg/mL (≈ 355 µM); MIC (Enterobacter cloacae): 80 µg/mL (≈ 355 µM); IC50 [9]: 5 µM; MIC (Serratia marcescens): 80 µg/mL (≈ 355 µM); IC50 [11]: 5 µM; IC50 [10]: > 50 µM
7 | O=C(O)[C@H]1/C(=C/CO)O[C@@H]2CC(=O)N21 [CLAVULANIC ACID] | 120 | – | – | 0.065 | –
8 | COC1=CC2CC(=O)N(C2)C1C(=O)OCc1ccc([N+](=O)[O-])cc1 (stereo unspecified) | – | 45 | inactive | – | –

— ChEMBL document CHEMBL1148249, “Design and synthesis of bridged gamma-lactams as analogues of beta-lactam antibiotics” (Bioorg Med Chem Lett, 2004)
